# Data taken from PubChem BioAssay AID256 (DTP/NCI, 2004).
# Where “and” joins values, the source holds several entries; their conditions need not be identical. Identical values can stand only once. Inconclusive results and toxic doses are left out.
# Test system: CD2F1 mice, L1210 leukemia ip, survival T/C
# Assay: NCI In Vivo Anticancer Drug Screen. Data for tumor model L1210 Leukemia (intraperitoneal) in CD2F1 (CDF1) mice
# Settings: higher = longer survival
# Method: The antitumor activity of compounds was measured in mice bearing transplantable tumors. Survival or tumor size were measured and the results are expressed as the measurement made in the treated group (T) divided by the measurement made in the vehicle treated control group (C). The tumor model used in this assay is L1210 Leukemia (intraperitoneal) in CD2F1 (CDF1) mice
# [1] = endpoint: mean survival time, dose: 100.0 mg/kg/injection, schedule: Q01DX009 (ip), vehicle: saline with Tween-80
# [2] = endpoint: mean survival time, dose: 100.0 mg/kg/injection, schedule: Q04DX003 (ip), vehicle: saline with Tween-80
# [3] = endpoint: mean survival time, dose: 200.0 mg/kg/injection, schedule: Q01DX009 (ip), vehicle: saline with Tween-80
# [4] = endpoint: mean survival time, dose: 200.0 mg/kg/injection, schedule: Q04DX003 (ip), vehicle: saline with Tween-80
# [5] = endpoint: mean survival time, dose: 400.0 mg/kg/injection, schedule: Q01DX009 (ip), vehicle: saline with Tween-80
# [6] = endpoint: mean survival time, dose: 400.0 mg/kg/injection, schedule: Q04DX003 (ip), vehicle: saline with Tween-80
# [7] = endpoint: mean survival time, dose: 12.5 mg/kg/injection, schedule: Q01DX009 (ip), vehicle: saline with Tween-80
# [8] = endpoint: mean survival time, dose: 25.0 mg/kg/injection, schedule: Q01DX009 (ip), vehicle: saline with Tween-80
# [9] = endpoint: mean survival time, dose: 50.0 mg/kg/injection, schedule: Q01DX009 (ip), vehicle: saline with Tween-80
# [10] = endpoint: mean survival time, dose: 100.0 mg/kg/injection, schedule: Q04DX003 (ip), vehicle: saline
# [11] = endpoint: mean survival time, dose: 200.0 mg/kg/injection, schedule: Q04DX003 (ip), vehicle: saline
# [12] = endpoint: mean survival time, dose: 50.0 mg/kg/injection, schedule: Q01DX009 (ip), vehicle: saline
# [13] = endpoint: mean survival time, dose: 100.0 mg/kg/injection, schedule: Q01DX009 (ip), vehicle: saline
# [14] = endpoint: mean survival time, dose: 200.0 mg/kg/injection, schedule: Q01DX009 (ip), vehicle: saline
# [15] = endpoint: mean survival time, dose: 25.0 mg/kg/injection, schedule: Q01DX009 (ip), vehicle: saline
# [16] = endpoint: mean survival time, dose: 25.0 mg/kg/injection, schedule: Q04DX003 (ip), vehicle: saline
# [17] = endpoint: mean survival time, dose: 50.0 mg/kg/injection, schedule: Q04DX003 (ip), vehicle: saline
# [18] = endpoint: mean survival time, dose: 12.5 mg/kg/injection, schedule: Q01DX009 (ip), vehicle: saline
compound,measurement,setting,value
Cc1c2ccccc2c(C)c2c1cc(C(=O)O)c1ccccc12,T/C,"endpoint: mean survival time, dose: 12.5 mg/kg/injection, schedule: Q04DX002 (ip), vehicle: Klucel (hydroxypropylcellulose) (HPC)",106 % of control
same,T/C,"endpoint: mean survival time, dose: 25.0 mg/kg/injection, schedule: Q04DX002 (ip), vehicle: Klucel (hydroxypropylcellulose) (HPC)",101 % of control
same,T/C,"endpoint: mean survival time, dose: 50.0 mg/kg/injection, schedule: Q04DX002 (ip), vehicle: Klucel (hydroxypropylcellulose) (HPC)",106 % of control
same,T/C,"endpoint: mean survival time, dose: 100.0 mg/kg/injection, schedule: Q04DX002 (ip), vehicle: Klucel (hydroxypropylcellulose) (HPC)",107 % of control
same,T/C,"endpoint: mean survival time, dose: 150.0 mg/kg/injection, schedule: Q04DX002 (ip), vehicle: Klucel (hydroxypropylcellulose) (HPC)",112 % of control
same,T/C,"endpoint: median survival time, dose: 25.0 mg/kg/injection, schedule: Q01DX009 (ip), vehicle: sodium bicarbonate",111 % of control
same,T/C,"endpoint: median survival time, dose: 50.0 mg/kg/injection, schedule: Q01DX009 (ip), vehicle: sodium bicarbonate",115 % of control and 117 % of control
same,T/C,"endpoint: median survival time, dose: 200.0 mg/kg/injection, schedule: Q01DX009 (ip), vehicle: sodium bicarbonate",122 % of control
same,T/C,"endpoint: median survival time, dose: 400.0 mg/kg/injection, schedule: Q01DX009 (ip), vehicle: sodium bicarbonate",107 % of control
COC(=O)C(CCCCN)NS(=O)(=O)c1ccccc1 (configuration not stated),T/C,[1],96 % of control
same,T/C,[2],109 % of control
same,T/C,[3],100 % of control
same,T/C,[4],91 % of control
same,T/C,[5],96 % of control
same,T/C,[6],103 % of control
O=C1c2ccccc2C(C(O)(C(F)(F)F)C(F)(F)F)c2ccccc21,T/C,[7],100 % of control
same,T/C,[8],98 % of control
same,T/C,[9],96 % of control
CC(=O)N/N=C1\CC2CCC1(C)C2(C)C (configuration not stated),T/C,"endpoint: mean survival time, dose: 100.0 mg/kg/injection, schedule: Q01DX001 (ip), vehicle: saline",102 % of control
same,T/C,"endpoint: mean survival time, dose: 200.0 mg/kg/injection, schedule: Q01DX001 (ip), vehicle: saline",102 % of control
same,T/C,"endpoint: mean survival time, dose: 400.0 mg/kg/injection, schedule: Q01DX001 (ip), vehicle: saline",98 % of control
OCCN=Cc1c(Cl)ccc(Cl)c1Cl,T/C,[10],108 % of control
same,T/C,[11],101 % of control
same,T/C,"endpoint: mean survival time, dose: 400.0 mg/kg/injection, schedule: Q04DX003 (ip), vehicle: saline",104 % of control
CCCCCCC[CH2][Sn]1([CH2]CCCCCCC)[O]C2C(CO)OC(n3ccc(=O)[nH]c3=O)C2[O]1 (configuration not stated),T/C,"endpoint: mean survival time, dose: 12.5 mg/kg/injection, schedule: Q01DX005 (ip), vehicle: other",100 % of control
same,T/C,"endpoint: mean survival time, dose: 25.0 mg/kg/injection, schedule: Q01DX005 (ip), vehicle: other",90 % of control
same,T/C,"endpoint: mean survival time, dose: 50.0 mg/kg/injection, schedule: Q01DX005 (ip), vehicle: other",91 % of control
same,T/C,"endpoint: mean survival time, dose: 100.0 mg/kg/injection, schedule: Q01DX005 (ip), vehicle: other",94 % of control
same,T/C,"endpoint: mean survival time, dose: 200.0 mg/kg/injection, schedule: Q01DX005 (ip), vehicle: other",91 % of control
CNc1cccnc1/C=N/NC(N)=S,T/C,[7],104 % of control
same,T/C,[9],154 % of control
same,T/C,[1],162 % of control
same,T/C,[3],181 % of control
same,T/C,[5],90 % of control
CC(Br)C(C)Br (configuration not stated),T/C,[12],103 % of control
same,T/C,[13],95 % of control
same,T/C,[14],100 % of control
COc1ccc(-n2c(=S)[nH]c3ccc(C)cc3c2=O)cc1,T/C,[1],97 % of control
same,T/C,[3],100 % of control
same,T/C,[5],91 % of control
C1=CC2OC1c1ccccc12,T/C,"endpoint: mean survival time, dose: 100.0 mg/kg/injection, schedule: Q04DX003 (ip), vehicle: other",93 % of control
same,T/C,"endpoint: mean survival time, dose: 200.0 mg/kg/injection, schedule: Q04DX003 (ip), vehicle: other",98 % of control
same,T/C,"endpoint: mean survival time, dose: 400.0 mg/kg/injection, schedule: Q04DX003 (ip), vehicle: other",93 % of control
CCOC(=O)Nc1cc(NC(C)CCCN(CC)CC)c2ncc(-c3ccccc3)nc2n1 (configuration not stated) (tested in a mixture with another compound),T/C,[15],89 % of control
same,T/C,[16],98 % of control
same,T/C,[12],94 % of control
same,T/C,[17],98 % of control
same,T/C,[13],95 % of control
same,T/C,[10],108 % of control
CCO/C=C1\SC(=S)N(c2ccccc2OC)C1=O,T/C,[2],107 % of control
same,T/C,[4],102 % of control
same,T/C,[6],107 % of control
COC1OC(CO)C(O)C(NC(=O)N(C)N=O)C1O (configuration not stated),T/C,[18],111 % of control
same,T/C,[15],114 % of control
same,T/C,[13],151 % of control
same,T/C,[14],157 % of control and 197 % of control
same,T/C,"endpoint: mean survival time, dose: 400.0 mg/kg/injection, schedule: Q01DX009 (ip), vehicle: saline",95 % of control
same,T/C,"endpoint: median survival time, dose: 25.0 mg/kg/injection, schedule: Q01DX009 (ip), vehicle: saline",121 % of control
same,T/C,"endpoint: median survival time, dose: 100.0 mg/kg/injection, schedule: Q01DX009 (ip), vehicle: saline",159 % of control and 160 % of control
same,T/C,"endpoint: median survival time, dose: 144.0 mg/kg/injection, schedule: Q01DX005 (ip), vehicle: saline",158 % of control
same,T/C,"endpoint: median survival time, dose: 200.0 mg/kg/injection, schedule: Q01DX009 (ip), vehicle: saline",172 % of control and 209 % of control
same,T/C,"endpoint: median survival time, dose: 240.0 mg/kg/injection, schedule: Q01DX005 (ip), vehicle: saline",170 % of control and 172 % of control
same,T/C,"endpoint: median survival time, dose: 400.0 mg/kg/injection, schedule: Q01DX005 (ip), vehicle: saline",175 % of control and 225 % of control
same,T/C,"endpoint: median survival time, dose: 400.0 mg/kg/injection, schedule: Q01DX009 (ip), vehicle: saline",222 % of control and 236 % of control
same,T/C,"endpoint: median survival time, dose: 666.66 mg/kg/injection, schedule: Q01DX005 (ip), vehicle: saline",233 % of control
same,T/C,"endpoint: median survival time, dose: 1111.11 mg/kg/injection, schedule: Q01DX005 (ip), vehicle: saline",92 % of control
C=CCOCC(O)CN(CCC)CCC (configuration not stated),T/C,[18],103 % of control
same,T/C,[15],95 % of control
same,T/C,[16],93 % of control
same,T/C,[12],103 % of control
same,T/C,[17],89 % of control
same,T/C,[2],97 % of control
CC1CC1C(=O)O (configuration not stated),T/C,[10],102 % of control
same,T/C,[11],102 % of control
COc1ccc(/C=C(/C(=O)O)c2ccc(OC)cc2)cc1,T/C,"endpoint: mean survival time, dose: 100.0 mg/kg/injection, schedule: Q01DX009 (ip), vehicle: other",98 % of control
same,T/C,"endpoint: mean survival time, dose: 200.0 mg/kg/injection, schedule: Q01DX009 (ip), vehicle: other",102 % of control
same,T/C,"endpoint: mean survival time, dose: 400.0 mg/kg/injection, schedule: Q01DX009 (ip), vehicle: other",98 % of control
CN(C)C1c2cc(Br)ccc2-c2ccc(Br)cc21,T/C,"endpoint: mean survival time, dose: 50.0 mg/kg/injection, schedule: Q01DX001 (ip), vehicle: carboxymethylcellulose (CMC)",101 % of control
same,T/C,"endpoint: mean survival time, dose: 100.0 mg/kg/injection, schedule: Q01DX001 (ip), vehicle: carboxymethylcellulose (CMC)",101 % of control
same,T/C,"endpoint: mean survival time, dose: 200.0 mg/kg/injection, schedule: Q01DX001 (ip), vehicle: carboxymethylcellulose (CMC)",104 % of control
same,T/C,"endpoint: mean survival time, dose: 400.0 mg/kg/injection, schedule: Q01DX001 (ip), vehicle: carboxymethylcellulose (CMC)",104 % of control
COc1cc(Cl)ccc1NC(=O)OCCOc1cccc(C)c1,T/C,[9],93 % of control
same,T/C,[1],101 % of control
same,T/C,[3],93 % of control
CCCN(CCC)C(=O)[S-].CCCN(CCC)C(=O)[S-].[Ni+2],T/C,"endpoint: mean survival time, dose: 6.25 mg/kg/injection, schedule: Q01DX009 (ip), vehicle: saline with Tween-80",95 % of control
same,T/C,"endpoint: mean survival time, dose: 6.25 mg/kg/injection, schedule: Q04DX003 (ip), vehicle: saline sonified",99 % of control
same,T/C,[7],106 % of control
same,T/C,"endpoint: mean survival time, dose: 12.5 mg/kg/injection, schedule: Q04DX003 (ip), vehicle: saline sonified",97 % of control
same,T/C,[8],106 % of control
same,T/C,"endpoint: mean survival time, dose: 25.0 mg/kg/injection, schedule: Q04DX003 (ip), vehicle: saline sonified",103 % of control
O=C1NC2COC3COc4ccccc4OC3C2N1Cc1ccccc1 (configuration not stated),T/C,"endpoint: mean survival time, dose: 75.0 mg/kg/injection, schedule: Q01DX001 (ip), vehicle: saline with Tween-80",93 % of control
same,T/C,"endpoint: mean survival time, dose: 150.0 mg/kg/injection, schedule: Q01DX001 (ip), vehicle: saline with Tween-80",95 % of control
same,T/C,"endpoint: mean survival time, dose: 300.0 mg/kg/injection, schedule: Q01DX001 (ip), vehicle: saline with Tween-80",93 % of control
Clc1ccc(CN2COc3c(ccc4cccnc34)C2)cc1Cl,T/C,[7],95 % of control and 97 % of control
same,T/C,[8],92 % of control and 105 % of control
same,T/C,[9],94 % of control and 105 % of control
same,T/C,[1],103 % of control and 110 % of control
same,T/C,[3],95 % of control
same,T/C,[5],94 % of control
CC(=O)C1CCC2C3=CC=C4CC(OC(=O)CCC(C)C)CCC4(C)C3CCC12C (configuration not stated),T/C,[1],105 % of control
same,T/C,[3],97 % of control
same,T/C,[5],101 % of control
